Assay results: US20230330025A1, “Particle Modifiers for Multi-Drug Loaded Nanoparticles” (UNIVERSITY OF CONNECTICUT, priority 2022, published 2023)
Structures can show the parent of a compound that is named as a salt.

Assay: In vitro release study (dialysis method)
Type: physicochemical
Conditions: PBS pH 5.5, 6.5, 7.4; 37 °C; 100 kD dialysis
Description: The release study was conducted using a dialysis method with PBS as the buffer media at pH 5.5, 6.5, and 7.4 to simulate the endosomal, tumoral, and plasma conditions, respectively. The pH was adjusted using 1 M HCl solution or 1 M NaOH solution as needed to achieve the desired media pH. Briefly, 5 mL of each formulation were placed in Spectrum Float-A-Lyzer G2 dialysis tubes (Thermo Fisher Scientific, Waltham, MA) with a molecular weight cut-off of 100 kD, which were then immersed in 50 mL of release media. The containers were incubated at 37° C. under shaking at 150 rpm for 96 hours. At 0-, 1-, 2-, 4-, 8-, 12-, 24-, 36-, 48-, 72-, and 96-hour intervals, 500 μL of the sample solution was withdrawn from the release media and replaced with an equal amount of fresh medium. The samples were analyzed using the UPLC-UV method previously described. The error bars were obtained by measuring each sample in triplicate.

DOX passed through membrane by 24 hours: ~100% | DOX released (passed dialysis membrane) within first 4 hours: About 80%
Structure (SMILES): COc1cccc2c1C(=O)c1c(O)c3c(c(O)c1C2=O)C[C@@](O)(C(=O)CO)C[C@@H]3O[C@H]1C[C@H](N)[C@H](O)[C@H](C)O1 [DOX solution, Doxorubicin (hydrochloride salt)]
